Columns and labels:
[1] = Treatment-emergent adverse events, single ascending dose; format: in vivo, human
TLR7/8 [2] = assay: Ex vivo R848-stimulated whole blood cytokine release immunoassay, IL-6 secretion; format: in vivo, human
[3] = Safety under fed conditions; format: in vivo, human; details: single dose 25 mg
mouse models of SLE = details: cited from earlier work
[4] = Safety and tolerability assessments, whole study; format: in vivo, human
TLR7/8 [5] = details: in vitro and ex vivo; cited from earlier work
[6] = Plasma pharmacokinetics, single 25 mg dose fed / food effect; format: in vivo, human; details: high-fat, high-calorie meal

With N#Cc1ccc(N2C[C@H](N)C[C@H](C(F)(F)F)C2)c2cccnc12 [enpatoran] the Study intervention-related flatulence ([1]; SAD cohorts) was “three”, the “TEAE: Flatulence” value ([1]; single dose 3 mg, n = 6) was 4 (66.7) Number (%) of participants and the “Inhibition of IL-6 secretion maintained throughout the dosing interval” value (TLR7/8 [2]; 200 mg QD, 25 mg BID and 50 mg BID) was “At least 60%”. The “Dose with maximum inhibition of ex vivo-stimulated IL-6 secretion” value (TLR7/8 [2]; doses up to 200 mg) was 200 mg, the “Time of peak TLR7/8 target modulation” value (TLR7/8 [2]; post-dose) was 2 h and the “TEAEs reported during Part C” value [3] was “no TEAEs were reported”. The “Disease activity in mouse models of SLE” value (mouse models of SLE) was “suppress disease activity”, the “Sustained inhibition of IL-6” value (mouse models of SLE; lowest efficacious dose in mouse models of SLE) was 60% and the “Dose dependence of TEAEs” value ([4]; Parts A and B) was “No dose‐dependent TEAEs were observed”. For the same compound, the “Severity of TEAEs” value ([4]; Parts A and B, all TEAEs) was “mild to moderate”, the Tolerability ([4]; single and multiple oral doses up to 200 mg, fasting or fed) was “well tolerated” and the Deaths ([4]; whole study) was “no deaths”. For the same compound, the “Discontinuations due to TEAEs” value ([4]; whole study) was “no discontinuations due to TEAEs”, the “Serious AEs” value ([4]; whole study) was “No serious AEs occurred” and the “Changes in laboratory values, vital signs or ECGs” value ([4]; whole study period) was “No clinically relevant changes”. For the same compound, the “Activation of TLR7/8” value (TLR7/8 [5]) was “inhibit the activation of TLR7/8” and the “Decrease in CL/F, fed versus fasting” value [6] was “approximately 25%”.

— paper PMC8377444 (Pharmacology Research & Perspectives, 2021)
